Key:
D-amino-acid oxidase [1] = target: T1, D-amino-acid oxidase (Homo sapiens, UniProt P14920); assay: Inhibition of human DAAO using D-kynurenine as substrate
Target sequence in this assay (P14920 whole entry): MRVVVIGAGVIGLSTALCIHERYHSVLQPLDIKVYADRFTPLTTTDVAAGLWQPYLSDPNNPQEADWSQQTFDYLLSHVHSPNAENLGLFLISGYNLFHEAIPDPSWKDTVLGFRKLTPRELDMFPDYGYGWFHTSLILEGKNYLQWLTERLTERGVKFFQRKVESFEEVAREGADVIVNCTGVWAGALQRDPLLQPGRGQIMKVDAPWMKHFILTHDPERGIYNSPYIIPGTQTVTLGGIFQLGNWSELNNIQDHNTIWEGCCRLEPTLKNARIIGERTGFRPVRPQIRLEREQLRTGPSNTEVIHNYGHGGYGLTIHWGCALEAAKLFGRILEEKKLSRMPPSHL

D-amino-acid oxidase [2] = target: T1, D-amino-acid oxidase; assay: Inhibition of human DAAO at 20 uM using D-kynurenine as substrate relative to control
Target sequence in this assay (P14920 whole entry, looked up): as the sequence (P14920 whole entry) above

IC50 (D-amino-acid oxidase [1]) [µM] | inhibition (D-amino-acid oxidase [2]) [%] | SMILES
0.49 | 100 | CN(CC(=O)O)C(=O)c1cc(NC(=O)c2cc(Br)c(Br)[nH]2)c[nH]1
 | 0 | CN(C(=O)c1cc(Br)c(Br)[nH]1)c1c[nH]c(C(=O)NCC(=O)O)c1
0.39 | 100 | O=C(O)CNC(=O)c1cc(NC(=O)c2cc(Br)c(Br)[nH]2)c[nH]1
5.2 | 100 | O=C(O)CNC(=O)c1cc(NC(=O)c2cc(Cl)c(Cl)[nH]2)c[nH]1
 | 32 | Cn1cc(NC(=O)c2cc(Br)c(Br)[nH]2)cc1C(=O)NCC(=O)O
 | 0 | CN(CC(=O)O)C(=O)c1cc(N(C)C(=O)c2cc(Br)c(Br)[nH]2)c[nH]1

The next lines start with the compound.

SMILES | IC50 (D-amino-acid oxidase [1]) [µM] | inhibition (D-amino-acid oxidase [2]) [%]
Cc1[nH]c(C(=O)Nc2c[nH]c(C(=O)NCC(=O)O)c2)c(Cl)c1Cl | 8.8 | 100
O=C(O)CNC(=O)c1cc(NC(=O)c2ccccn2)c[nH]1 |  | 18
O=C(O)CNC(=O)c1cc(NC(=O)c2cccnc2)c[nH]1 |  | 45
O=C(O)CNC(=O)c1cc(NC(=O)c2cc(Br)c[nH]2)c[nH]1 | 6.7 | 100
O=C(O)CNC(=O)c1cc([N+](=O)[O-])c[nH]1 |  | 35
O=C(O)CNC(=O)c1cc(NC(=O)c2ccc([N+](=O)[O-])[nH]2)c[nH]1 |  | 33
CC(=O)Nc1c[nH]c(C(=O)NCC(=O)O)c1 |  | 39
O=C(O)CNC(=O)c1cc(NC(=O)c2cc3ccccc3[nH]2)c[nH]1 |  | 8
